Series [1] in a line: DNA2-59-1 second efficacy study: dissipation rate and half-life in pond water (HPLC). The conditions noted are these: for DNA2-59-1 Levels in Pond Water: second study, 0.3 μM applied. The class given is physicochemical. On the procedure: In the second efficacy test with DNA2-59-1, six limnocorrals (1.53 m in diameter and 1.53 m high) were placed in a 0.1-ha earthen pond containing a heavy bloom of O. perornata. The same delay in mixing the water within the limnocorrals used in the first efficacy study was utilized. Water within three randomly selected limnocorrals received an application rate of 0.3 μM DNA2-59-1, and the other three limnocorrals were controls. Water samples were collected before application of DNA2-59-1, 20 minutes after application, and at days 1, 2, 3, and 7. The same tests and methods used in the first efficacy testing of DNA2-59-1 were used.
Approximately 15 mL each of water samples from DNA2-59-1 efficacy testing that were designated for HPLC analysis were placed in scintillation vials and held in a freezer. Water samples were later melted at room temperature, and 5 mL of each sample was then filtered through a nylon membrane filter (13 mm diameter and 0.45 μm; Whatman International, Maidstone, England) using a 5 mL syringe (Hamilton Company, Reno, Nev.) and a 13 mm syringe filter holder (Fisher Scientific Company, Pittsburgh, Pa.). Filtrate (1 mL) was placed in 2 mL vials and capped using teflon/rubber septum caps (National Scientific Company, Jeddah, Saudia Arabia). The filter paper was removed and placed in a scintillation vial to which 2 mL of HPLC grade methanol (Fisher Scientific, Fair Lawn, N.J.) was added and then sonicated for 5 minutes. The methanol solution was then filtered using a nylon membrane acrodisc (25 mm and 0.45 μm; Pall Life Sciences, Ann Arbor, Mich.), and the methanol filtrate was placed in separate 2 mL vials.
Filtrate samples were analyzed using a Waters 2690 Alliance HPLC containing a 996 PDA detector and a XTerra RP 18 column (150 mm×4.6 mm, 5 μm particle size; Waters Corporation, Milford, Mass.). The mobile phase consisted of 25 mM sodium dihydrogenphosphate in 0.1% phosphoric acid (A) and acetonitrile (B). The gradient was from 80A/20B in 15 minutes to 40A/60B. After each run, a 5 minute wash with methanol was performed, followed by equilibrating the column for 10 minutes with 80A/20B. The temperature was set at 40° C., the flow rate was 1 mL/minute, the detection wavelength 256 nm, and the sample injection volume was 10 μL. All solvents used were HPLC grade (Fisher Scientific, Fair Lawn, N.J.).
Means and standard deviations of data were determined and graphed. The graphs were used to help determine the half-life of DNA2-59-1 in the pond water. Because of the short duration of the first efficacy study, the half-life of DNA2-59-1 in the pond water could not be determined.

A further series concerns diatoms. Kind of series: DNA2-59-1 second pond efficacy study: diatom abundance. The conditions noted are these: 0.3 μM. It counts as in vivo, diatoms (division Chromophyta, class Bacillariophyceae). On the procedure: (§1) The method described by Schrader et al. (2000) was used to determine the potential for using the anthraquinone derivatives as selective algicides in catfish aquaculture ponds. All catfish ponds used in efficacy tests were maintained using commercial pond management practices and were located at the Thad Cochran Pond Facility, Mississippi State University, Stoneville, Miss. Anthraquinone analogs were dissolved in deionized water before application to water within the limnocorrals.
(§2) Limnocorrals in which test compound was applied to the enclosed water were randomly selected, and control (no test compound applied) limnocorrals were included in each efficacy study. For each sampling, two water samples (250 mL) were obtained from within each limnocorral (approximately 6-8 cm below the water surface and from opposite sides of each limnocorral) and mixed together in a 500 mL sample bottle to provide a representative sample of the water contained within the limnocorral.
(§3) In the second efficacy test with DNA2-59-1, six limnocorrals (1.53 m in diameter and 1.53 m high) were placed in a 0.1-ha earthen pond containing a heavy bloom of O. perornata. The same delay in mixing the water within the limnocorrals used in the first efficacy study was utilized. Water within three randomly selected limnocorrals received an application rate of 0.3 μM DNA2-59-1, and the other three limnocorrals were controls. […]

The test system of a further series is green algae. Kind of series: DNA2-59-1 third pond efficacy study: green algae abundance. The conditions noted are these: 0.3 μM, from three days after application. The class given is in vivo. On the procedure:
as §1, §2
(§4) For the third efficacy test with DNA2-59-1, twelve limnocorrals (2.44 m in diameter and 1.53 m high) were placed in a 4-ha earthen pond containing a bloom of O. perornata. […]

In series [2] the test system is 2-methylisoborneol. Kind of series: DNA2-59-1 third pond efficacy study: MIB levels. The class given is in vivo. The following applies: 0.3 μM, 24 hours after application. The procedure: as §1, §2, §4
A further series relates to chlorophyll a. Kind of series: DNA2-59-1 third pond efficacy study: chlorophyll a. It counts as in vivo. The following applies: 0.3 μM, 24 hours after application. The procedure:
as §1, §2, §4

For series [3], the system named is 2-methylisoborneol. Kind of series: DNA2-59-1 second pond efficacy study: MIB levels. The class given is in vivo. The conditions noted are these: 0.3 μM, after three days. On the procedure:
as §1, §2, §3

Another series deals with Cylindrospermopsis spp. Kind of series: DNA2-59-1 third pond efficacy study: Cylindrospermopsis spp. abundance. It counts as in vivo. The following applies: 0.3 μM, one day after application. The procedure:
as §1, §2, §4

Series [4] deals with 2-methylisoborneol. Kind of series: DNA1-19-1 first pond efficacy study (limnocorrals): MIB levels. It counts as in vivo. The following applies: 2 μM.
The nature of series [5]: Detection of DNA1-19-1 in pond water samples. The following applies: samples collected at and after 24 hours after application to water within limnocorrals. It counts as physicochemical. The source says: The attempts to develop a reproducible analytical method to determine the levels of DNA1-19-1 in the pond water were unsuccessful. DNA1-19-1 is believed to bind quickly to suspended soil particles due to the positively charged nature of the 2-methylamino chain; evident by the lack of detection of DNA1-19-1 in the water. Since the levels of suspended soil particles in each water sample varied and an accurate measurement of the soil particles present in each sample could not be obtained, the consistent recoveries of DNA1-19-1 from the particulate portions of water samples could not be achieved.

Molecules are shown by their SMILES.

What is called half-life is the time needed for the level to fall by half in the phase considered. On to `CC(C)NCc1ccc2c(c1)C(=O)c1ccccc1C2=O` [DNA2-59-1, 2-[methylamino-N-(1′-methylethyl)]-9,10-anthraquinone monophosphate], for which, in series [1] (pond water in limnocorrals (earthen catfish pond), second efficacy study), the half-life at 0.3 μM is 19 h. The DNA2-59-1 Levels in Pond Water in series [1] (0 hours) came out at 94.8 ± 11.5 µg/L; in series [1] (24 hours) it was 36.1 ± 4.5 µg/L; in series [1] (48 hours), 16.3 ± 0.4 µg/L; in series [1] (72 hours) it was 7.6 ± 0.7 µg/L; in series [1] (168 hours), 0 µg/L. In the series on diatoms, the “diatoms (result in words)” value is listed as “not significantly affected”. The “Numbers of green algae vs control limnocorrals (result in words)” value in the series with green algae is “significantly higher”. For the same compound, the “Levels of 2-methylisoborneol (result in words)” value with 2-methylisoborneol [2] is recorded as “significantly reduced”. The “Chlorophyll a levels (result in words)” value in the series with chlorophyll a is recorded as “significantly reduced”. Moreover, the “Levels of MIB (result in words)” value in the series with 2-methylisoborneol [3] is listed as “significantly reduced”. In addition, in the series with Cylindrospermopsis spp., the “Numbers of Cylindrospermopsis spp. (result in words)” value is recorded as “significantly reduced”.
Take `CCN(CC)CCCC(C)NCc1ccc2c(c1)C(=O)c1ccccc1C2=O.O=P(O)(O)O.O=P(O)(O)O` (stereo not shown) [DNA1-19-1, 2-[methylamino-N-(1′-methyl-4′-N,N-diethylaminobutyl)]-9,10-anthraquinone diphosphate]: in the series on 2-methylisoborneol [4], the “Levels of MIB after reduction” value is reported as around 970 ng/mL and the “time MIB levels remained much lower than in the controls” value is 8 days. Besides, the “Levels of MIB before reduction” value in the series with 2-methylisoborneol [4] (ng/mL (ppb)) is recorded as 15,250 ng/mL. Moreover, in [5], the “detection in soluble fractions of water samples (result in words)” value is given as “could not be detected”.
